Source: ChEMBL document CHEMBL3507680, “University of Dundee, Gates Library screen for HepG2 cell viability”

Assay: Human HepG2 cell viability assay in 384 well format
Format: toxicity, cell-based
Parameters: dose 125 nL, time 70.5 hour; concentration not given beside the values
Settings: HepG2 cells, read-out: Inhibition

SMILES	cytotoxicity at 70.5 h [%]
CSc1cccc(CN2CCC(CCC(=O)NC3CC3)CC2)c1	-7.44
CC(C)SCC(=O)N1CCCn2nc(C(=O)Nc3ccccc3)cc2C1	6.99
COCCN(Cc1cnn(C)c1)C(=O)C1COc2c(cccc2OC)C1 (configuration not stated)	0.35
Cc1cc(C)c2c(NCCC3(O)CCCC3)ncnc2n1	-6.61
CC1CCCN1Cc1cccc(C(=O)Nc2ccc3c(c2)CCC3=O)c1 (configuration not stated)	5.96
Cc1ccnn1CC(=O)N1CCCN(C2Cc3ccccc3C2)CC1	-14.5
Cc1nn2cc(CCNC(=O)c3cc(C(C)C)nn3C)nc2s1	6.04
COCCn1ccnc1C1CCCN(c2cnccn2)C1 (configuration not stated)	15.5
CC(C)NS(=O)(=O)c1cc(C(=O)O)cc(-c2ccccc2CO)c1	-3.6
O=C(NCCCO)C1(N2CCCCC2)Cc2ccccc2C1	-10.2
CC(=O)c1ccc(C(=O)N(C)Cc2nc(-c3ccccn3)no2)s1	8.57
Cc1ccc(Oc2ncccc2CNC(=O)C2COC(=O)N2)c(F)c1F (configuration not stated)	-11.2
CCc1[nH]c2c(CNC(=O)C3CCN(C)C3)cc(C)cc2c1C (configuration not stated)	-8.68
C=C(C)COc1ccc(C(=O)N(C)C(C)c2ccon2)cc1 (configuration not stated)	-9.63
CN(Cc1cc2n(n1)CCCNC2)Cc1n[nH]c2c1CCC2	-13.3
O=C(NCc1csc(Cc2ccccc2)n1)C1NCCc2[nH]cnc21 (configuration not stated)	-2.44
CN(Cc1cc2n(n1)CCCN(C(=O)N1CCCC1)C2)Cc1nccs1	24.4
O=C(Cc1ccncc1)N(CCO)CCSc1ccc(Cl)cc1	-12.1
CCOc1ccccc1CCN1Cc2ncccc2C1=O	3.15
O=C(C1CC1)N1CCN(C(=O)CSc2ccccn2)[C@H]2CS(=O)(=O)C[C@H]21	24
Cc1cccc(CN2CCC(NS(C)(=O)=O)CC2)n1	-8.65
CCOCCC(=O)N1CCCCC1CCn1cccn1 (configuration not stated)	-6.8
CC(c1nccs1)N(C)Cc1ccc(CCC(C)(C)O)cc1 (configuration not stated)	0.285

SMILES	cytotoxicity at 70.5 h [%]
CN1CCN(S(=O)(=O)N2CCCCC2CCc2ccc(O)cc2)CC1 (configuration not stated)	-4.09
CCC(=O)c1ccc(OCC(=O)NC(C)Cc2cc(C)n[nH]2)cc1 (configuration not stated)	-8.59
CC(C)Oc1ccccc1-c1cc(CN)ccc1F	5.05
Cc1ccc(NC(=O)CNC(C)CN2CCCCC2)c(F)c1 (configuration not stated)	6.42
O=C(O)CCc1cc2n(n1)CCN(Cc1ccc3[nH]ccc3c1)C2	-2.66
CCn1nc(C)c(CN(CCOC)C(=O)c2ccc(=O)[nH]n2)c1C	-4.87
c1ccc2c3c([nH]c2c1)CN(Cc1cc2n(n1)CCNC2)CC3	21.1
CN1CCN(C)C2(CCN(Cc3ccc(C4CCCO4)s3)CC2)C1 (configuration not stated)	-3.28
CCn1cc(Cn2cc(-c3cccc(C(C)N(C)C)c3)nn2)cn1 (configuration not stated)	-6.09
COCCNc1cc(-c2ccccc2C(N)=O)c2cc[nH]c2n1	-10.4
Cc1ccccc1N1CCN(C2CCCN(C(=O)CCC(C)C)C2)CC1 (configuration not stated)	-0.359
COCCN(C)C[C@@H]1CN(C(=O)c2ccc(OC)c(F)c2)C[C@@H]1CO	-7.53
CCN(CCSc1ccccc1)C(=O)c1cn([C@H]2CC[C@@H](N)CC2)nn1	-11.7
NCC1CCCCN1Cc1cc(O)c2cccc(F)c2n1 (configuration not stated)	21.6
CN(C)Cc1nc(C(=O)N2CCCC(COc3ccc(F)cc3)C2)cs1 (configuration not stated)	-7.27
CCN1CCC(CC(=O)NC[C@H]2CCc3ccccc3O2)CC1	-8.77
CC1CCc2n[nH]c(C(=O)N3CCc4c(nc(N(C)C)[nH]c4=O)C3)c2C1 (configuration not stated)	-13.8
Cc1nn(CC(=O)N(C)Cc2nncn2C(C)C)c(=O)c2ccccc12	-9.91
N[C@H]1CC[C@@H](n2cc(C(=O)N[C@H]3CCCc4ccccc43)nn2)CC1	-10.4
COc1ccc(CCNCc2ccco2)cc1OC	-6.05
Cc1cccc(CN(C(=O)CS(C)(=O)=O)C(C)C)c1	-2.96
Cc1cc(C(=O)NCc2cccnc2N2CCCC(O)C2)c(C)o1 (configuration not stated)	-8.63
CN(CCCc1cnn(C)c1)C(=O)Nc1cccc2[nH]ncc12	-15.7

SMILES	cytotoxicity at 70.5 h [%]
CN(C)S(=O)(=O)N1CC[C@]2(O)CCN(Cc3cccc(F)c3)C[C@@H]2C1	-6.74
Cc1c[nH]c(CN(C)C(=O)C(C)(C)NC(=O)c2cccs2)n1	-19.9
O=C(O)C1(Cc2ccc(Cl)cc2)CCN(c2ncccc2F)CC1	-4.45
CCCn1c(C)c(CC(=O)NCCNC(C)=O)c2c1CC(C)(C)CC2=O	1.34
Cc1c(C(=O)N2CCC(O)(CN(C)C)C2)c2cc(O)ccc2n1C (configuration not stated)	-9.59
CSCCc1nc(C(C)C)nn1-c1ccncc1C	-12.8
Cc1cc(NCCc2nnc(N)s2)nc(-c2cccnc2)n1	-6
CCCN1CCC(Cc2noc(-c3cccnc3OC)n2)CC1	2.25
O=C(c1cnc(O)cn1)N1C[C@@H]2CC[C@H](C1)N(Cc1ccccc1)C2	-0.665
Cc1cc(CNC(=O)CCCN2CCCCC2)n(C)n1	12.2
Cc1cc(C)cc(N2CCN(C(=O)C3CN(C)C(=O)N3)CC2=O)c1 (configuration not stated)	-9.45
CC(NC(=O)c1cccc(CCC(C)(C)O)c1)c1nnc(N)s1 (configuration not stated)	30.7
Cn1c(C2CCCN2C(=O)c2cn(CCN)nn2)nc2ccccc21 (configuration not stated)	-15.7
O=C(CCN1CCCC(CO)(CC2CC2)C1)NCc1cccc(Cl)c1 (configuration not stated)	-7.94
Cc1ccc(C2(O)CCN(Cc3nc(C)n4ccccc34)CC2)nc1	-9.79
CCn1c(Cn2cncn2)nnc1C1CCN(Cc2ccccn2)CC1	6.14
CCCc1n[nH]c(=O)n1[C@@H](CC)c1ccccc1	-10.8
Oc1ccc(-c2c(-c3ccccc3)ncn2C[C@H]2CCCN2)cc1	-2.17
CCCn1cc(C(=O)NC(C(=O)O)c2ccccc2C(F)(F)F)c(C)n1 (configuration not stated)	-8.7
Cc1nsc(NC(=O)N2CCN(Cc3ccccc3F)C(=O)C2)n1	-8.72
Cc1cc(C)nc(NC(C)Cc2cnccn2)n1 (configuration not stated)	-14
CCCn1ccnc1CN1CCCC1c1ccccn1 (configuration not stated)	-4.45
CN(C)[C@H]1CCN(c2nc(C(C)(C)C)nc3c2cnn3C)C1	27.9

SMILES	cytotoxicity at 70.5 h [%]
Cc1[nH]c(=O)[nH]c(=O)c1CN1CCCC(CCc2ccc(F)cc2F)C1 (configuration not stated)	-9.69
COc1ccccc1OC1CN(C(=O)c2c(C)nc3ccc(C)cn23)C1	-1.56
CC(C)(C)c1cc(CN2CCOC(CCc3ccccc3)C2)n[nH]1 (configuration not stated)	-9.92
COc1cccn(Cc2nnc(-c3cccnc3)o2)c1=O	-1.16
CC(C)N1CCCC(C(=O)NC(C)(C)c2nnc(N)s2)C1 (configuration not stated)	-12.2
CCc1c(C)nn(CCNC(=O)c2cc(C3CC3)n[nH]2)c1C	-2.41
CO[C@H]1C[C@@H](O)C12CCN(C(=O)CCSCc1ccc(F)cc1)CC2	-18.7
CC(=O)NCCNC(=O)c1cc(COc2ccccc2)[nH]n1	1.84
CN(CCc1ccccn1)C(=O)c1cn(CCN2CCNCC2)nn1	-10.7
COC(=O)NCC(=O)N(C)Cc1csc(-c2cccs2)n1	3.35
Cc1ccsc1CN(CCN(C)C)C(=O)c1cc2ccccc2[nH]1	4.92
c1ccc2c(c1)nnn2CCCNC1CCOC2(CCOCC2)C1 (configuration not stated)	-5
CCCc1cc(C(=O)N(Cc2cccnc2)C2CCCCC2)[nH]n1	-7.56
CCC(CO)(CO)NC(=O)C1CCC(=O)N(CCc2ccccc2)C1 (configuration not stated)	-10.4
CCC(O)c1nc2c([nH]1)CC(C)(C)CNC2=O (configuration not stated)	13
CCN(CC)Cc1cc(C(=O)N2CCCC(O)(CO)C2)c(C)o1 (configuration not stated)	-7.27
O=S1(=O)CCC(n2cc(C3=CCN(CCn4cccc4)CC3)cn2)C1 (configuration not stated)	26.8
Cc1ccc(C)c2c(O)cc(CN3CCNC(=O)C3C)nc12 (configuration not stated)	-8.28
CN(CC1CCCCO1)c1nc(-c2cccnc2)nc2c1CCNC2 (configuration not stated)	-17.5
CC(CN1CCOCC1)NC1CCN(Cc2cccc(O)c2)CC1 (configuration not stated)	-8.8
CCCN1CCC(Cc2nn3c(C(C)C)nnc3s2)CC1	10.4
CC(C)c1nnc(NCc2cc3n(n2)CCN(C2CCCCC2)C3)s1	-0.516
Cc1ccsc1CN1CC2(CCN(C(=O)C3CC3)CC2)CC1C(=O)O (configuration not stated)	10.8

SMILES	cytotoxicity at 70.5 h [%]
Cc1nn(C)c(Oc2ccc(Cl)cc2)c1CN1CCC(CN)C1 (configuration not stated)	-8.55
CCCN(Cc1nccn1C)C(=O)c1cnn[nH]1	7.26
CCCc1nnc(N[C@H](C)c2ccc(OC)cc2)o1	-10.6
O=C(C1CCC1)N1CCC(C2CCN(Cc3ccc(Cl)cc3)C2)CC1 (configuration not stated)	-3.08
Cc1nc(C)n(CCNS(=O)(=O)NCc2ccccc2)n1	-15.5
COc1cc(C)ccc1OCc1nc(C(=O)N2CCCO2)co1	10.4
CCc1cnc(NCC(CC)N2CCOCC2)nc1 (configuration not stated)	-6.68
CCC[C@H]1CN(CCS(C)(=O)=O)C[C@@H]1NC(=O)c1ccccc1F	-2.49
COc1cc(C2CC(=O)Nc3c2nc2n3CCCC2)ccc1O (configuration not stated)	-7.4
CCC(CO)N(Cc1cccnc1)Cc1ccc(-c2ccn[nH]2)s1 (configuration not stated)	-7.15
Cn1ccn2ncc(C(=O)NCc3cccnc3N3CCCC(O)C3)c12 (configuration not stated)	-18.3
CN(Cc1ccon1)CC1CCOc2ccccc2C1 (configuration not stated)	-8.84
CS(=O)(=O)N1CCC(Oc2ccc(C(=O)NC3CCCC3)cc2Cl)CC1	-7.15
Cn1ccnc1CN1CCN(CC2CC2)[C@@H]2CS(=O)(=O)C[C@@H]21	-7.65
CC(c1cccs1)N(C)C(=O)c1cc(CN(C)Cc2ccccc2)on1 (configuration not stated)	-4.76
O=C(Cc1c[nH]c2ccccc12)NCC1CCN(Cc2c[nH]cn2)C1 (configuration not stated)	-6.01
Cc1cc(CN2CC3(CCN(C(=O)C4CC4)CC3)CC2C(=O)O)oc1C (configuration not stated)	-7.26
O=C(NC1CCCNC1)c1cc(COc2cccc(C(F)(F)F)c2)[nH]n1 (configuration not stated)	-0.657
Cc1ccccc1-n1cc(-c2ccnc(N[C@@H](CO)C(C)C)n2)cn1	-7.32
CCCn1ncc(C(=O)NCCc2[nH]nc3c2CCCC3)c1C	-5.62
